≈ marks a conversion by molar mass, not a printed value. Counter-ions that a name gives are not always drawn. Like-named read-outs stand apart in the source and are kept apart here.
How the values were obtained:
Type in all cases: physicochemical
[1] = Chemical stability under accelerated conditions (% area)
Description: The stability of various formulations of MK-A was evaluated under accelerated conditions (Table 4). Levels of potency reduction right after the solid dispersion preparation were 1.7% and 4.6% for spray drying and hot melt extrusion, respectively. The higher potency reduction in HME was attributed to the higher processing temperature of the HME process (~140 °C) at which thermal degradation of the drug occurred. The potency of the amorphous form of active was further reduced after 2 weeks storage at 40 °C/75% relative humidity (RH) conditions in closed glass vials by up to as much as 8.5% loss of potency in the solid dispersion via HME.

Log P (free base) = assay: Log P (free base)
Text: (§1) Table 1 Physical/chemical properties of MK-A.

[2] = Solid-state chemical/physical stability of drug forms; details: chemical and physical
Text: as §1

[3] = Solubility in H2O, SGF and FaSSIF
Text: as §1

[4] = Fasted Simulated Small Intestine Fluid (FaSSIF)

Structure (SMILES) | 2 Weeks at 40 °C/75% RH Closed (% Area) ([1]; 2 weeks, 40 °C/75% RH, closed glass vials) | Initial (% Area) ([1]; initial, after preparation) | Log P (free base) (Log P (free base)) | Stability [2] | solubility [3, 4] | solubility ([3]; Simulated Gastric Fluid (SGF)) | solubility ([3]; water, pH 7.3, water, H2O (pH = 7.3), read-out: Solubility) | logP (Log P (free base)) | solubility ([3]; simulated gastric fluid (SGF), simulated gastric fluid, Simulated Gastric Fluid (SGF), read-out: Solubility) | solubility ([3]; water, pH 3.5, water, H2O (pH = 3.5), read-out: Solubility)
CS[C@@]1(C(=O)Nc2ccc3[nH]nc(-c4ccc(OC(C)C)nc4)c3c2)CCN(CC(=O)N2CC=C(c3ccc(-c4ncn(C)n4)cc3)CC2)C1 [MK-A free base] | 98.8 % Area | 98.8 % Area | 4.5 | Chemically and physically stable | 2 µg/mL (≈ 2.89 µM) | 907 µg/mL (≈ 1310 µM) | 0.3 µg/mL (≈ 0.434 µM) |  |  | 
CS[C@@]1(C(=O)Nc2ccc3[nH]nc(-c4ccc(OC(C)C)nc4)c3c2)CCN(CC(=O)N2CC=C(c3ccc(-c4ncn(C)n4)cc3)CC2)C1 [MK-A HCl salt] |  |  |  | Chemically stable in the solid-state; Physically stable at various temperatures and humidity conditions but sensitive to mechanical stress | 21 µg/mL |  |  | 4.5 | 525 µg/mL | 661 µg/mL
